Columns and labels:
Test in all cases: microscale thermophoresis, native tryptophan fluorescence, Hill fit n = […]
Type in all cases: binding
Conditions in all cases: read-out: Measured EC50
mOR174-4 = target: T1, mOR174-4 (Mus musculus, UniProt Q920P1)
T1 construct: gene Or5d47; full length; C-terminal GSSG linker plus rho1D4 tag (TETSQVAPA); E. coli cell-free expression in Brij-35, purified in FC-14
T1 sequence (Q920P1 1-318): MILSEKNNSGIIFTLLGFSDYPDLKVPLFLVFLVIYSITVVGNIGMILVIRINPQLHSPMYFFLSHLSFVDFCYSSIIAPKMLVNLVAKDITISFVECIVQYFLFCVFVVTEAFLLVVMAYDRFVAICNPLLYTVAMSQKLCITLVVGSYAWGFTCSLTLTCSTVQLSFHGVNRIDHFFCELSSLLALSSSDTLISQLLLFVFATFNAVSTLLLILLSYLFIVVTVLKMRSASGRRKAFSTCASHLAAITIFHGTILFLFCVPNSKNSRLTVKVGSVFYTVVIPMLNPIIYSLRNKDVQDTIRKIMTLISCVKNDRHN

mOR174-9 = target: T2, mOR174-9 (Mus musculus, UniProt Q920P2)
T2 construct: gene Or5d18; full length; C-terminal GSSG linker plus rho1D4 tag (TETSQVAPA); E. coli cell-free expression in Brij-35, purified in FC-14
T2 sequence (Q920P2 1-313): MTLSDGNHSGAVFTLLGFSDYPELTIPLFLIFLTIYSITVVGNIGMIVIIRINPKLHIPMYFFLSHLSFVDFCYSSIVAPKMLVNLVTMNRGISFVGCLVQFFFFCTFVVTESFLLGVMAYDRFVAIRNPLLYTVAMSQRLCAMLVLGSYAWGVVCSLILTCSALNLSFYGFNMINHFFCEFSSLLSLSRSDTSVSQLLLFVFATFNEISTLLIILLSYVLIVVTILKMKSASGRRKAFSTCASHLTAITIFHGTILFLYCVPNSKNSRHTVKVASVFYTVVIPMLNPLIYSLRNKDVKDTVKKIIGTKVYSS

mOR103-15 = target: T3, mOR103-15 (Mus musculus, UniProt Q9QWU6)
T3 construct: gene Or6a2; full length; C-terminal GSSG linker plus rho1D4 tag (TETSQVAPA); E. coli cell-free expression in Brij-35, purified in FC-14
T3 sequence (Q9QWU6 1-327): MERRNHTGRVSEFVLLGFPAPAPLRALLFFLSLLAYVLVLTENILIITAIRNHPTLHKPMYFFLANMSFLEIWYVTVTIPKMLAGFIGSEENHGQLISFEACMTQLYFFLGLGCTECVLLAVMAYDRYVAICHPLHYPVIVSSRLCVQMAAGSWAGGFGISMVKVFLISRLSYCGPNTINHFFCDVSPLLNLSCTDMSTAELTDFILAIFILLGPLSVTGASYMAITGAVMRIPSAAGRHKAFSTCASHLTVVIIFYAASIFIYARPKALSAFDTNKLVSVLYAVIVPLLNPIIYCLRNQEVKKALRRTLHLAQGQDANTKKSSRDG

| EC50 (mOR103-15) [µM] | Compound | EC50 (mOR174-4) [µM] | EC50 (mOR174-9) [µM] |
| --- | --- | --- | --- |
| – | CCOc1cc(C=O)ccc1O [Ethyl Vanillin] | 7 ± 2 | 4.9 ± 3.5 |
| 2 ± 0.7 | CCCCCCC=O [Heptanal] | – | – |
